Experimental data published in patent US10681909B2, “Herbicidal triazoles” (FMC Corporation, priority 2014, dated 2020).

What was measured:
[1] = system: foxtail, giant; test: Test A postemergence; assay type: in vivo, Setaria faberii; conditions: Setaria faberi, post-emergence, 240 h, 0 to 100 scale (0 no effect, 100 complete control), approx. 10 d, read-out: Plant response rating, Foxtail, Giant
Summary of the method: (§1)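 Pre- and postemergence spray tests in a loam soil–sand mixture: seeded soil received a directed spray, while established seedlings 2–10 cm high at the one- to two-leaf stage were treated over the top. Compounds were carried in non-phytotoxic solvent with surfactant.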

[2] = system: barnyardgrass; test: Test A preemergence; assay type: in vivo, Echinochloa crus-galli; conditions: Echinochloa crus-galli, pre-emergence, 240 h, 0 to 100 scale (0 no effect, 100 complete control), read-out: Plant response rating, Barnyardgrass
Summary of the method: as §1

[3] = system: blackgrass; test: Test C postemergence; assay type: in vivo, Alopecurus myosuroides
Summary of the method: (§2)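 Test chemicals in a non-phytotoxic solvent mixture with surfactant were applied to pots of plants at 2 to 18 cm (1- to 4-leaf stage) for postemergence treatment, grown in a peat-based medium with vermiculite, starter nutrients and dolomitic limestone. Preemergence treatment was to seeds freshly planted in loam soil mixed with sand.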

[4] = system: barnyardgrass; test: Test C postemergence; assay type: in vivo, Echinochloa crus-galli
Summary of the method: as §2

[5] = system: foxtail, giant; test: Test C postemergence; assay type: in vivo, Setaria faberii
Summary of the method: as §2

[6] = system: galium; test: Test C postemergence; assay type: in vivo, Galium aparine
Summary of the method: as §2

[7] = system: oilseed rape; test: Test C postemergence; assay type: in vivo, Brassica napus; conditions: Oilseed Rape
Summary of the method: as §2

[8] = system: corn; test: Test C postemergence; assay type: in vivo, Zea mays
Summary of the method: as §2

[9] = system: pigweed; test: Test C postemergence; assay type: in vivo, Amaranthus retroflexus
Summary of the method: as §2

[10] = system: johnsongrass; test: Test C postemergence; assay type: in vivo, Sorghum halepense
Summary of the method: as §2

[11] = system: pigweed; test: Test A postemergence; assay type: in vivo, Amaranthus retroflexus; conditions: Amaranthus retroflexus, post-emergence, 240 h, 0 to 100 scale (0 no effect, 100 complete control), approx. 10 d, read-out: Plant response rating, Pigweed
Summary of the method: as §1

[12] = system: crabgrass, large; test: Test C postemergence; assay type: in vivo, Digitaria sanguinalis
Summary of the method: as §2

[13] = system: velvetleaf; test: Test C postemergence; assay type: in vivo, Abutilon theophrasti
Summary of the method: as §2

[14] = system: waterhemp; test: Test C postemergence; assay type: in vivo, Amaranthus rudis
Summary of the method: as §2

[15] = system: wheat; test: Test A postemergence; assay type: in vivo, Triticum aestivum; conditions: Triticum aestivum, post-emergence, 240 h, 0 to 100 scale (0 no effect, 100 complete control), approx. 10 d, read-out: Plant response rating, Wheat
Summary of the method: as §1

[16] = system: barnyardgrass; test: Test B flooded paddy test; assay type: in vivo, Echinochloa crus-galli; conditions: Echinochloa crus-galli, 360 h, 125 g ai/ha, applied to paddy water at 2-leaf stage, visual rating after 13 to 15 d, scale 0 (no effect) to 100 (complete control), read-out: Plant response rating, Barnyardgrass, Flood
Summary of the method: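 Pots were flooded to 3 cm above the soil at treatment, and compounds were applied directly into the paddy water. That depth was held throughout. After 13 to 15 d in a greenhouse, plants were rated visually against untreated controls.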

[17] = system: ragweed; test: Test C postemergence; assay type: in vivo, Ambrosia elatior
Summary of the method: as §2

[18] = system: kochia; test: Test C postemergence; assay type: in vivo, Kochia scoparia
Summary of the method: as §2

[19] = system: lambsquarters; test: Test C postemergence; assay type: in vivo, Chenopodium album
Summary of the method: as §2

COc1nc(-c2ccc(F)cc2)nn1Cc1ccnc(C(F)(F)F)c1 [Compound 9, 4-[[3-(4-fluorophenyl)-5-methoxy-1H-1,2,4-triazol-1-yl]methyl]-2-(trifluoromethyl)pyridine]
pest or weed control at 125 g/ha ([1]; 125 g ai/ha): 80% | pest or weed control at 500 g/ha ([1]; 500 g ai/ha): 100% | pest or weed control at 125 g/ha ([2]; 125 g ai/ha): 80% | pest or weed control at 500 g/ha ([2]; 500 g ai/ha, approx. 10 d): 100% | Plant response rating (scale of 0 to 100 where 0 is no effect and 100 is complete control) ([3]; 16 g ai/ha): 5 | Plant response rating (scale of 0 to 100 where 0 is no effect and 100 is complete control) ([3]; 31 g ai/ha): 5 | Plant response rating (scale of 0 to 100 where 0 is no effect and 100 is complete control) ([3]; 62 g ai/ha): 5 | Plant response rating (scale of 0 to 100 where 0 is no effect and 100 is complete control) ([3]; 125 g ai/ha): 15 | Plant response rating (scale of 0 to 100 where 0 is no effect and 100 is complete control) ([4]; 16 g ai/ha): 5 | Plant response rating (scale of 0 to 100 where 0 is no effect and 100 is complete control) ([4]; 31 g ai/ha): 10 | Plant response rating (scale of 0 to 100 where 0 is no effect and 100 is complete control) ([4]; 62 g ai/ha): 10 | Plant response rating (scale of 0 to 100 where 0 is no effect and 100 is complete control) ([4]; 125 g ai/ha): 20 | Plant response rating (scale of 0 to 100 where 0 is no effect and 100 is complete control) ([5]; 16 g ai/ha): 10 | Plant response rating (scale of 0 to 100 where 0 is no effect and 100 is complete control) ([5]; 31 g ai/ha): 15 | Plant response rating (scale of 0 to 100 where 0 is no effect and 100 is complete control) ([5]; 62 g ai/ha): 15 | Plant response rating (scale of 0 to 100 where 0 is no effect and 100 is complete control) ([5]; 125 g ai/ha): 20 | Plant response rating (scale of 0 to 100 where 0 is no effect and 100 is complete control) ([6]; 16 g ai/ha): 50 | Plant response rating (scale of 0 to 100 where 0 is no effect and 100 is complete control) ([6]; 31 g ai/ha): 70 | Plant response rating (scale of 0 to 100 where 0 is no effect and 100 is complete control) ([6]; 62 g ai/ha): 80 | Plant response rating (scale of 0 to 100 where 0 is no effect and 100 is complete control) ([6]; 125 g ai/ha): 65 | Plant response rating (scale of 0 to 100 where 0 is no effect and 100 is complete control) ([7]; 16 g ai/ha): 40 | Plant response rating (scale of 0 to 100 where 0 is no effect and 100 is complete control) ([7]; 31 g ai/ha): 55 | Plant response rating (scale of 0 to 100 where 0 is no effect and 100 is complete control) ([7]; 62 g ai/ha): 80 | Plant response rating (scale of 0 to 100 where 0 is no effect and 100 is complete control) ([7]; 125 g ai/ha): 70 | Plant response rating (scale of 0 to 100 where 0 is no effect and 100 is complete control) ([8]; 16 g ai/ha): 10 | Plant response rating (scale of 0 to 100 where 0 is no effect and 100 is complete control) ([8]; 31 g ai/ha): 20 | Plant response rating (scale of 0 to 100 where 0 is no effect and 100 is complete control) ([8]; 62 g ai/ha): 35 | Plant response rating (scale of 0 to 100 where 0 is no effect and 100 is complete control) ([8]; 125 g ai/ha): 20 | Plant response rating (scale of 0 to 100 where 0 is no effect and 100 is complete control) ([9]; 16 g ai/ha): 75 | Plant response rating (scale of 0 to 100 where 0 is no effect and 100 is complete control) ([9]; 31 g ai/ha): 85 | Plant response rating (scale of 0 to 100 where 0 is no effect and 100 is complete control) ([9]; 62 g ai/ha): 90 | Plant response rating (scale of 0 to 100 where 0 is no effect and 100 is complete control) ([9]; 125 g ai/ha): 85 | Plant response rating (scale of 0 to 100 where 0 is no effect and 100 is complete control) ([10]; 16 g ai/ha): 0 | Plant response rating (scale of 0 to 100 where 0 is no effect and 100 is complete control) ([10]; 31 g ai/ha): 5 | Plant response rating (scale of 0 to 100 where 0 is no effect and 100 is complete control) ([10]; 62 g ai/ha): 5 | Plant response rating (scale of 0 to 100 where 0 is no effect and 100 is complete control) ([10]; 125 g ai/ha): 10 | pest or weed control at 125 g/ha ([11]; 125 g ai/ha): 100% | pest or weed control at 500 g/ha ([11]; 500 g ai/ha): 100% | Plant response rating (scale of 0 to 100 where 0 is no effect and 100 is complete control) ([12]; 16 g ai/ha): 10 | Plant response rating (scale of 0 to 100 where 0 is no effect and 100 is complete control) ([12]; 31 g ai/ha): 10 | Plant response rating (scale of 0 to 100 where 0 is no effect and 100 is complete control) ([12]; 62 g ai/ha): 25 | Plant response rating (scale of 0 to 100 where 0 is no effect and 100 is complete control) ([12]; 125 g ai/ha): 25 | Plant response rating (scale of 0 to 100 where 0 is no effect and 100 is complete control) ([13]; 16 g ai/ha): 25 | Plant response rating (scale of 0 to 100 where 0 is no effect and 100 is complete control) ([13]; 31 g ai/ha): 35 | Plant response rating (scale of 0 to 100 where 0 is no effect and 100 is complete control) ([13]; 62 g ai/ha): 35 | Plant response rating (scale of 0 to 100 where 0 is no effect and 100 is complete control) ([13]; 125 g ai/ha): 35 | Plant response rating (scale of 0 to 100 where 0 is no effect and 100 is complete control) ([14]; 16 g ai/ha): 70 | Plant response rating (scale of 0 to 100 where 0 is no effect and 100 is complete control) ([14]; 31 g ai/ha): 65 | Plant response rating (scale of 0 to 100 where 0 is no effect and 100 is complete control) ([14]; 62 g ai/ha): 80 | Plant response rating (scale of 0 to 100 where 0 is no effect and 100 is complete control) ([14]; 125 g ai/ha): 85 | plant injury at 125 g/ha ([15]; 125 g ai/ha): 10% | plant injury at 500 g/ha ([15]; 500 g ai/ha): 10% | pest or weed control at 125 g/ha [16]: 0% | Plant response rating (scale of 0 to 100 where 0 is no effect and 100 is complete control) ([17]; 16 g ai/ha): 15 | Plant response rating (scale of 0 to 100 where 0 is no effect and 100 is complete control) ([17]; 31 g ai/ha): 25 | Plant response rating (scale of 0 to 100 where 0 is no effect and 100 is complete control) ([17]; 62 g ai/ha): 25 | Plant response rating (scale of 0 to 100 where 0 is no effect and 100 is complete control) ([17]; 125 g ai/ha): 50 | Plant response rating (scale of 0 to 100 where 0 is no effect and 100 is complete control) ([18]; 16 g ai/ha): 95 | Plant response rating (scale of 0 to 100 where 0 is no effect and 100 is complete control) ([18]; 31 g ai/ha): 90 | Plant response rating (scale of 0 to 100 where 0 is no effect and 100 is complete control) ([18]; 62 g ai/ha): 90 | Plant response rating (scale of 0 to 100 where 0 is no effect and 100 is complete control) ([18]; 125 g ai/ha): 90 | Plant response rating (scale of 0 to 100 where 0 is no effect and 100 is complete control) ([19]; 16 g ai/ha): 65 | Plant response rating (scale of 0 to 100 where 0 is no effect and 100 is complete control) ([19]; 31 g ai/ha): 55 | Plant response rating (scale of 0 to 100 where 0 is no effect and 100 is complete control) ([19]; 62 g ai/ha): 70 | Plant response rating (scale of 0 to 100 where 0 is no effect and 100 is complete control) ([19]; 125 g ai/ha): 85
